According to ChEMBL document CHEMBL1201862, “PubChem BioAssay data set” (2004):
Activity calls are given as the source filed them.

Key:
[1] = molecular target: T1, Mannose-6-phosphate isomerase (Homo sapiens, UniProt P34949); assay: inhibitors of human PMI, primary screen, biochemical, fluorescence intensity, coupled assay (AID 1209)
T1 sequence (P34949 whole entry): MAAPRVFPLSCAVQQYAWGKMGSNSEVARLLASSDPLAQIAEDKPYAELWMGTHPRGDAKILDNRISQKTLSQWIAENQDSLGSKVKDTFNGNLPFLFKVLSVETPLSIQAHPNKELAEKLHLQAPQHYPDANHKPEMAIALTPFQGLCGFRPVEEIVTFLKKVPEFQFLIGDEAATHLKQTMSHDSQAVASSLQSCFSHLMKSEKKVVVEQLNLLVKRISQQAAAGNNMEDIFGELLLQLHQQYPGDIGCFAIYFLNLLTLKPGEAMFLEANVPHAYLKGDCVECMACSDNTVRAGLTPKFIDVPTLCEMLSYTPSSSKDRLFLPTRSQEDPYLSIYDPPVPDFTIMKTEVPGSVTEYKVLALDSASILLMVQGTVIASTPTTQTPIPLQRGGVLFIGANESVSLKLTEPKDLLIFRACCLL

[2] = molecular target: T1, Mannose-6-phosphate isomerase; assay: PMI enzyme inhibitors, confirmation, biochemical, fluorescence intensity (AID 1535)
[3] = molecular target: DNA dC->dU-editing enzyme APOBEC-3A (Homo sapiens, UniProt P31941); assay: APOBEC3A DNA deaminase inhibitors, dose response, biochemical (AID 504722); type: functional
Sequence of DNA dC->dU-editing enzyme APOBEC-3A (P31941 whole entry): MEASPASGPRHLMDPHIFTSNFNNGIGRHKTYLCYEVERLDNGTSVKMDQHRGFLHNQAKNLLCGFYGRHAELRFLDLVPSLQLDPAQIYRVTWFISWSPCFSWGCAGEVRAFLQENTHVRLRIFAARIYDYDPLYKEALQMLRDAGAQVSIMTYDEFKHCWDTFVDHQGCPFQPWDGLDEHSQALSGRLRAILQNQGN

[4] = molecular target: T2, Phosphomannomutase 2 (Homo sapiens, UniProt O15305); assay: Counter screen SAR assay for PMM2 inhibitors via a fluorescence intensity assay. [Related pubchem assays (depositor defined):AID1545, AID1574]
T2 sequence (O15305 whole entry): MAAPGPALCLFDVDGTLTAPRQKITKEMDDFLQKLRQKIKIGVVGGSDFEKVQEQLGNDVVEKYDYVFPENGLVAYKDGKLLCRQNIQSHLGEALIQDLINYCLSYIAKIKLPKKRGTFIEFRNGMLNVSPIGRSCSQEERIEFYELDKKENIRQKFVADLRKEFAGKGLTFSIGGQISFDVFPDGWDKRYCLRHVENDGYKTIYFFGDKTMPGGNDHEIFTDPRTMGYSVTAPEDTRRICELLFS

[5] = molecular target: DNA dC->dU-editing enzyme APOBEC-3G (Homo sapiens, UniProt Q9HC16); assay: Dose Response confirmation of small molecule APOBEC3G DNA Deaminase Inhibitors via a fluorescence-based single-stranded DNA deaminase assay. [Related pubchem assays (depositor defined):AID493012, AID493028]; type: functional
Sequence of DNA dC->dU-editing enzyme APOBEC-3G (Q9HC16 whole entry): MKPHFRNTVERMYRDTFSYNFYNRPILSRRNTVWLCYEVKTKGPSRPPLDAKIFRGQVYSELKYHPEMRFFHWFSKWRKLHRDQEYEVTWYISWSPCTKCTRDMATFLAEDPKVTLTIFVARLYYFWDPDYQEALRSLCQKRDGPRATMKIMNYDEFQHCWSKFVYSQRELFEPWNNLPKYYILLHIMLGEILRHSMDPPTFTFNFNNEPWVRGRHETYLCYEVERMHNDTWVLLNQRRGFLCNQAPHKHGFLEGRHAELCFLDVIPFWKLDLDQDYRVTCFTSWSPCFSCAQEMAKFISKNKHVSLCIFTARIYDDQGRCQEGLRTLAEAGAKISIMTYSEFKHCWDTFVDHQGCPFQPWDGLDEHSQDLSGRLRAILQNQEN

[6] = molecular target: FAD-linked sulfhydryl oxidase ALR (Homo sapiens, UniProt P55789); assay: inhibitors of human ALR sulfhydryl oxidase, dose response, biochemical, H2O2 detection, luminescence, cherry-pick (AID 493248)
Sequence of FAD-linked sulfhydryl oxidase ALR (P55789 whole entry): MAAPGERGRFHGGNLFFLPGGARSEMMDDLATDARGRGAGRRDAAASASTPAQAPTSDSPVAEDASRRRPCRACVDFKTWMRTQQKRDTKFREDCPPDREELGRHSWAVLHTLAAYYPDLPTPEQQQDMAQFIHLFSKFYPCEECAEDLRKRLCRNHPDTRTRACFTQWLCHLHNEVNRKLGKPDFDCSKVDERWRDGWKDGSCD

[7] = molecular target: T3, NADPH oxidase 1 (Homo sapiens, UniProt Q9Y5S8); type: functional, cell-based;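 also: Cell-based assay with luminescence read-out, IC50 derived from inhibitor dose-response curves; intracellular ROS from endogenous NOX1 in intact HT29 colon cancer cells; potency of inhibitors that lower the ROS luminescence signal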
T3 sequence (Q9Y5S8 whole entry): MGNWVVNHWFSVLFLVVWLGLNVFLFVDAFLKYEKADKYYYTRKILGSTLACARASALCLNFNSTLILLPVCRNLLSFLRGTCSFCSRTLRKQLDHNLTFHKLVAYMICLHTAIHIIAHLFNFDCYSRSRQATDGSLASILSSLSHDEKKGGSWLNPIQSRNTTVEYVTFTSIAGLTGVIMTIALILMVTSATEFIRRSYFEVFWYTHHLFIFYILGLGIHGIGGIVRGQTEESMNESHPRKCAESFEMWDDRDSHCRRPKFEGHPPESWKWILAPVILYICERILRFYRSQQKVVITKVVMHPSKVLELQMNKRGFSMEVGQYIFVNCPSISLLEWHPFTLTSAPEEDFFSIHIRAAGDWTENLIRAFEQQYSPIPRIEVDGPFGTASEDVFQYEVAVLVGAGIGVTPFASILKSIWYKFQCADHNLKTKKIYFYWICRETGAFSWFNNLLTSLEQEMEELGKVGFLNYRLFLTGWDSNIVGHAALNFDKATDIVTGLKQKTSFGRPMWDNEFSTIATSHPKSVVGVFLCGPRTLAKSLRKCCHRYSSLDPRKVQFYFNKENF

[8] = NIH-3T3 fibroblast cytotoxicity, dose response, cytotoxicity control, cell-based, fluorescence, Alamar Blue, secondary assay (AID 2327); type: functional;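 also: NIH-3T3 mouse fibroblasts cultured with fluconazole at 8 µg/mL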
[9] = molecular target: T4, RNA-binding protein pos-1 (Caenorhabditis elegans, UniProt G5EF15); assay: inhibitors of POS-1/mex-3 RNA binding, dose response, biochemical, fluorescence polarization (AID 1964);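 also: purified POS-1 fused to maltose binding protein made in E. coli; potency of compounds blocking POS-1 binding to fluorescent RNA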
T4 sequence (G5EF15 whole entry): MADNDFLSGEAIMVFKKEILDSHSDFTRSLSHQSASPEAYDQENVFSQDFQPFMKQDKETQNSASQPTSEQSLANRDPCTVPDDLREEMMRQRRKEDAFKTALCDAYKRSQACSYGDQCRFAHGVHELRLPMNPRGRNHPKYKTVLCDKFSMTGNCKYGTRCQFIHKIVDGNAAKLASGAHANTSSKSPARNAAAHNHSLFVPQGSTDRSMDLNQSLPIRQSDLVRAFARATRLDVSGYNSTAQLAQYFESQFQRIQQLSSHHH

[10] = molecular target: T5, Zinc finger protein mex-5 (Caenorhabditis elegans, UniProt Q9XUB2); assay: MEX-5/TCR-2 RNA interaction inhibitors, dose response, biochemical, C. elegans, fluorescence polarization (AID 1960)
T5 sequence (Q9XUB2 whole entry): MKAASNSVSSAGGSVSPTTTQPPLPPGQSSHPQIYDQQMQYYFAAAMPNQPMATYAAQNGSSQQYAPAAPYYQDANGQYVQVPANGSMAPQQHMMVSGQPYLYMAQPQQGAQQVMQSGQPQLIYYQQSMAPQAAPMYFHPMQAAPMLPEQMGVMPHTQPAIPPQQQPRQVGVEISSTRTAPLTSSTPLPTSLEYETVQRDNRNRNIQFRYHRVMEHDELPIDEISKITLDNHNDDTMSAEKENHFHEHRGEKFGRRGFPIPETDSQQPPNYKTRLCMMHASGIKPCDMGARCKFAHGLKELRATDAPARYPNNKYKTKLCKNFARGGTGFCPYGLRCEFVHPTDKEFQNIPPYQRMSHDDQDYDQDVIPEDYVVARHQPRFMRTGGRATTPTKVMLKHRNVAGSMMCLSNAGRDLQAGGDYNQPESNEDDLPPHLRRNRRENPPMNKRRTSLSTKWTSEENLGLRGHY

[11] = C. albicans growth with fluconazole, confirmation, fluorescence, retest (AID 2467); type: functional, cell-based
[12] = molecular target: Bifunctional protein GlmU (Mycobacterium tuberculosis, UniProt P9WMN3); assay: Inhibitors of Mycobacterial Glucosamine-1-phosphate acetyl transferase (GlmU). Secondary screen.; parameters: species or system Mycobacterium tuberculosis H37Rv
Sequence of Bifunctional protein GlmU (P9WMN3 whole entry): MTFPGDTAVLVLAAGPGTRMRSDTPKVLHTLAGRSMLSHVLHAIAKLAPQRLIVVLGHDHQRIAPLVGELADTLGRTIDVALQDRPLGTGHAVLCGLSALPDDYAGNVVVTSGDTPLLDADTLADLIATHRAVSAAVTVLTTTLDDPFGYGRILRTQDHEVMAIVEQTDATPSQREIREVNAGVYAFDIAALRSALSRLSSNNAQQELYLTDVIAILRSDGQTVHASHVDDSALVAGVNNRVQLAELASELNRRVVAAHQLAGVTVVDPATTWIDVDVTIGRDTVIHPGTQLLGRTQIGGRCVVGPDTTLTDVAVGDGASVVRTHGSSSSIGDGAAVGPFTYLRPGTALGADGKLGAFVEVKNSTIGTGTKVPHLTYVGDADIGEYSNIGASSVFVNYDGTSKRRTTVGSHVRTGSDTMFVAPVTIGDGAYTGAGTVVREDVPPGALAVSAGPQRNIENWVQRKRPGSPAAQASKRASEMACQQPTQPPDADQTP

[13] = enhancers of respiration in Yfh1-depleted yeast, dose response, Friedreich's ataxia, plus single-dose screen (AID 1465); type: functional;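 also: yeast depleted of Yfh1p frataxin homolog grown on glycerol needing respiration; WST-1 tetrazolium dye reduction as measure of cellular dehydrogenase metabolic activity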
[14] = molecular target: Induced myeloid leukemia cell differentiation protein Mcl-1 (Homo sapiens, UniProt Q07820); type: functional
Sequence of Induced myeloid leukemia cell differentiation protein Mcl-1 (Q07820 whole entry): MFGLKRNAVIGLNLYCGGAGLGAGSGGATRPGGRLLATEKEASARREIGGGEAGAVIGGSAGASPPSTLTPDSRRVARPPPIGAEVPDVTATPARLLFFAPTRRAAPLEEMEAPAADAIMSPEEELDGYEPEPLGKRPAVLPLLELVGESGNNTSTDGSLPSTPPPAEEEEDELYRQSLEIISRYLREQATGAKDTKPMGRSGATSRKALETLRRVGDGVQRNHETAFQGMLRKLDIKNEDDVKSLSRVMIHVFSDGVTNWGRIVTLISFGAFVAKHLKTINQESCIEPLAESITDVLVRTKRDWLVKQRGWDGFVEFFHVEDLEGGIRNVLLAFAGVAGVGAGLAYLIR

[15] = molecular target: Aryl hydrocarbon receptor (Homo sapiens, UniProt P35869); assay: Luminescence-based cell-based high throughput dose response assay for activators of the Aryl Hydrocarbon Receptor (AHR). [Related pubchem assays: 2796 (Primary screen (AHR activators in singlicate)), 2845 (Confirmation screen (AHR activators in triplicate)), 434939 (Counterscreen (PXR activators in triplicate)), 2804 (Summary (AHR activators))]; type: ADME
Sequence of Aryl hydrocarbon receptor (P35869 whole entry, the tested form may be a part): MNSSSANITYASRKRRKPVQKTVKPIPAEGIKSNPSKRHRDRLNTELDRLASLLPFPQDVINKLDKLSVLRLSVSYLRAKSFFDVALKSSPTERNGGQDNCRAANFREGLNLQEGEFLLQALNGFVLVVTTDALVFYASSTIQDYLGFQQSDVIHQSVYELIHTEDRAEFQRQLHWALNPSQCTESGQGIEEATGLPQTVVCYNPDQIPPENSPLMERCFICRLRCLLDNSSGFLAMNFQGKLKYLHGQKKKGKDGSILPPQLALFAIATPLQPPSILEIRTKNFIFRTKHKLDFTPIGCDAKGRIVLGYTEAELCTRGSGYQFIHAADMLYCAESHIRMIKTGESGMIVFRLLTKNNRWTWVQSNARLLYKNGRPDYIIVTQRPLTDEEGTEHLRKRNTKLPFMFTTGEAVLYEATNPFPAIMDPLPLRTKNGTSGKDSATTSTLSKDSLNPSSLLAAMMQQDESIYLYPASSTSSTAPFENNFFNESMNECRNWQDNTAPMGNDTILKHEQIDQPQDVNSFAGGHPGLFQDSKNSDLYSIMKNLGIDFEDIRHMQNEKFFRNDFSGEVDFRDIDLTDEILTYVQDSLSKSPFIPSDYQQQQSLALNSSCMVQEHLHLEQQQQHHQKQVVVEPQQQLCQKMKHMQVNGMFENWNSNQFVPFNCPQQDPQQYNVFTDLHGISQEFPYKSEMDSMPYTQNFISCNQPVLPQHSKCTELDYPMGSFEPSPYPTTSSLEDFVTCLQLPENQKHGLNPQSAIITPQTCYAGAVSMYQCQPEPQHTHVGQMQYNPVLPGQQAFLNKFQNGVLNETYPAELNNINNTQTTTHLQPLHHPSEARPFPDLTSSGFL

[16] = molecular target: T6, Carboxy-terminal domain RNA polymerase II polypeptide A small phosphatase 1 (Homo sapiens, UniProt Q9GZU7); assay: inhibitors of CTDSP1, concentration-response testing, biochemical assay, absorbance-based, actives from ultra-high-throughput screening (AID 540297); type: functional
T6 sequence (Q9GZU7 whole entry): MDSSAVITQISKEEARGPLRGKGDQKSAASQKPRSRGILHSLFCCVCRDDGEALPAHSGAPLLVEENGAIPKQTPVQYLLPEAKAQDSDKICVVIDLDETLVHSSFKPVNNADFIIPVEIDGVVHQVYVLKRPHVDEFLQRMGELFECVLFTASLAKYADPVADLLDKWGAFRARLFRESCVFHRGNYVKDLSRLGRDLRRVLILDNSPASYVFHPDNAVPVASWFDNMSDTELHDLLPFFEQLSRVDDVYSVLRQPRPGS

[17] = molecular target: Mitochondrial peptide methionine sulfoxide reductase (Bos taurus, UniProt P54149); type: functional;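 also: absorbance read-out, biochemical high-throughput dose-response screen for MsrA inhibitors, confirmatory; recombinant bovine MsrA coupled to E. coli TrxB with NADPH and selenocystamine; potency is for inhibitors of MsrA activity on DMSO substrate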
Sequence of Mitochondrial peptide methionine sulfoxide reductase (P54149 whole entry): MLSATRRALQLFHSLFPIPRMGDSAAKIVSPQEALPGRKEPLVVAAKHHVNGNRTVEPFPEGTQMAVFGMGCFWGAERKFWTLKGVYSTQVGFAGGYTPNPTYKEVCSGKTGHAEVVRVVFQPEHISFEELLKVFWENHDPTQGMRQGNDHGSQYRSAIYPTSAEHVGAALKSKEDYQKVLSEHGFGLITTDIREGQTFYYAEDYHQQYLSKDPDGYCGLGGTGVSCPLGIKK

[18] = inhibitors of intracellular T. cruzi replication, confirmation, NIH3T3 host cells, beta-gal luminescence (AID 2044); type: functional, cell-based;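 also: intracellular parasites grown in NIH/3T3 mouse fibroblasts as host cells; luminescent beta-galactosidase reporter signal from transgenic T. cruzi replicating inside host cells; inhibitors lower the luminescence signal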
[19] = cytotoxicity toward NIH3T3 fibroblasts, dose response, counter-screen, cell-based, ATP luminescence, mouse fibroblasts (AID 2010); type: functional;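 also: cells exposed to compound for about 90 hours before reading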
[20] = cells
[21] = Luminescence-based dose response cell-based high throughput screening assay for cytotoxic compounds using the IEC-6 intestinal epithelial cell line. [Related pubchem assays: 1858 (Summary AID.), 1825 (Counterscreen.), 1907 (Confirmation screen.)]; type: functional
[22] = molecular target: T1, Mannose-6-phosphate isomerase; assay: human PMI inhibitors, high substrate, primary screen, biochemical, fluorescence intensity, high mannose 6-phosphate (AID 1220)
[23] = test system: P388/ADR; assay: cells; type: functional; settings: Mus musculus, P388/ADR
[24] = test system: SN12K1; assay: cells; type: functional; settings: Homo sapiens
[25] = test system: P388; assay: cells; type: functional; settings: Mus musculus, P388
[26] = THP-1 cell cytotoxicity, dose response, cytotoxicity control for Vif-APOBEC3G degradation inhibitor project, THP-1 cells (AID 1117359); type: functional; settings: Human immunodeficiency virus 1, THP-1

## COc1ccc(-c2n[nH]c(=S)[nH]2)cc1OC
[1]
  IC50: 8.55 µM (active)
[2]
  IC50: 29 µM (active)
[3]
  IC50: > 100 µM (inactive)
[4]
  IC50: > 100 µM (inactive)
[5]
  IC50: 3.45 µM (active)
[6]
  AC50: 0.011 µM (active)

## O=[N+]([O-])c1cccc(-c2nc(-c3ccccc3)c(-c3ccccc3)[nH]2)c1
[7]
  IC50: > 17 µM (not active)

## CN(C)S(=O)(=O)c1cccc(NC(=S)N/N=C/c2ccc(O)c(O)c2O)c1
[8]
  EC50: > 150 µM (inactive)
[9]
  EC50: 15 µM (active)
[10]
  EC50: 3.48 µM (active)
[11]
  EC50: > 38 µM (not active)
[12]
  IC50: 68.4 µM (active)
[13]
  EC50: > 100 µM (active)
[14]
  IC50: 1.17 µM (active)

## O=C(N/N=C/c1ccco1)c1ccc(C(=O)N/N=C/c2ccco2)o1
[15]
  EC50: 5.21 µM (active)
[16]
  IC50: 4.92 µM (active)
[17]
  IC50: 114 µM (inactive)

## CCCCc1c(CCC)c(=N)c2ccccc2n1C
[18]
  EC50: < 0.1 µM (active)
[19]
  EC50: > 60 µM (inconclusive)
[20]
  EC50: 0.017 µM (active)

## COC1=C(N)C(=O)c2nc(-c3nc(C(=O)O)c(C)c(-c4ccc(OC)c(OC)c4O)c3N)ccc2C1=O [STREPTONIGRIN]
[21]
  IC50: 0.0094 µM (active)
[22]
  IC50: > 50 µM (not active)
[23]
  GI50: 0.0287 µM (active)
[24]
  GI50: < 0.01 µM (active)
[25]
  GI50: 0.0352 µM (active)
[26]
  CC50: 2.96 µM (active)
